Measurements reported in patent publication US20100099561A1, “HETEROBICYCLIC ALKYLTHIO-BRIDGED ISOXAZOLINES” (E.I. DU PONT DE NEMOURS AND COMPANY, priority 2008, published 2010).

Legend:
Type in all cases: in vivo
soybean (Glycine max) = experiment: Test B preemergence, soybean; details: Preemergence, scale 0 to 100
Text: (§1) Seeds of plant species selected from blackgrass (Alopecurus myosuroides), downy bromegrass (Bromus tectorum), green foxtail (Setaria viridis), Italian ryegrass (Lolium multiflorum), wheat (Triticum aestivum), wild oat (Avena fatua), catchweed bedstraw (Galium aparine), bermudagrass (Cynodon dactylon), Surinam grass (Brachiaria decumbens), cocklebur (Xanthium strumarium), corn (Zea mays), large crabgrass (Digitaria sanguinalis), woolly cupgrass (Eriochloa villosa), giant foxtail (Setaria faberii), goosegrass (Eleusine indica), johnsongrass (Sorghum halepense), kochia (Kochia scoparia), lambsquarters (Chenopodium album), morningglory (Ipomoea coccinea), nightshade (eastern black nightshade, Solanum ptycanthum), yellow nutsedge (Cyperus esculentus), pigweed (Amaranthus retroflexus), ragweed (common ragweed, Ambrosia elatior), soybean (Glycine max), sunflower (common oilseed sunflower, Helianthus annuus), Russian thistle (Salsola kali), and velvetleaf (Abutilon theophrasti) were planted into a blend of loam soil and sand and treated preemergence with test compounds formulated in a non-phytotoxic solvent mixture which included a surfactant. Treated plants and controls were maintained in a greenhouse for 13 to 15 days, after which time all species were compared to controls and visually evaluated. Plant response ratings, summarized in Table B, are based on a scale of 0 to 100 where 0 is no effect and 100 is complete control. A dash (-) response means no test result.

[1] = test system: barnyardgrass (Echinochloa crus-galli); experiment: Test A preemergence, barnyardgrass; details: 0 to 100 scale (0 no effect, 100 complete control)
How it was run: (§2)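 Greenhouse pre/postemergence test, loam–sand soil. Postemergence plants one- to two-leaf, 2–10 cm. Visual injury rating ~10 d after treatment, 0–100 vs untreated.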

[2] = test system: Surinam grass (Brachiaria decumbens); experiment: Test B preemergence, Surinam grass; details: Preemergence, scale 0 to 100
Text: as §1

[3] = test system: pigweed (Amaranthus retroflexus); experiment: Test A postemergence, pigweed; details: 0 to 100 scale (0 no effect, 100 complete control)
How it was run: as §2

[4] = test system: large crabgrass (Digitaria sanguinalis); experiment: Test A preemergence, large crabgrass; details: 0 to 100 scale (0 no effect, 100 complete control)
How it was run: as §2

[5] = test system: ducksalad (Heteranthera limosa); experiment: Test B flooded paddy test, ducksalad; details: Flood, scale 0 to 100
How it was run: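 Step one: raise plants to 2 leaves. Step two: flood pots 3 cm over the soil and apply compound into the water, keeping this depth. Step three: after 13–15 greenhouse days, score visually versus controls, 0–100, where 100 means complete control.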

[6] = test system: downy bromegrass (Bromus tectorum); experiment: Test B preemergence, downy bromegrass; details: scale 0 to 100
Text: as §1

[7] = test system: barnyardgrass (Echinochloa crus-galli); experiment: Test A postemergence, barnyardgrass; details: 0 to 100 scale (0 no effect, 100 complete control)
How it was run: as §2

[8] = test system: johnsongrass (Sorghum halepense); experiment: Test B preemergence, johnsongrass; details: scale 0 to 100
Text: as §1

wild oat (Avena fatua) = experiment: Test B preemergence, wild oat; details: scale 0 to 100
Text: as §1

[9] = test system: giant foxtail (Setaria faberi); experiment: Test A preemergence, giant foxtail; details: 0 to 100 scale (0 no effect, 100 complete control)
How it was run: as §2

[10] = test system: bermudagrass (Cynodon dactylon); experiment: Test B preemergence, bermudagrass; details: scale 0 to 100
Text: as §1

[11] = test system: morningglory (Ipomoea coccinea); experiment: Test B preemergence, morningglory; details: scale 0 to 100
Text: as §1

[12] = test system: morningglory (Ipomoea spp.); experiment: Test A preemergence, morningglory; details: 0 to 100 scale (0 no effect, 100 complete control)
How it was run: as §2

[13] = test system: ragweed (common ragweed, Ambrosia elatior); experiment: Test B preemergence, ragweed; details: scale 0 to 100
Text: as §1

[14] = test system: woolly cupgrass (Eriochloa villosa); experiment: Test B preemergence, woolly cupgrass; details: scale 0 to 100
Text: as §1

[15] = test system: green foxtail (Setaria viridis); experiment: Test B preemergence, green foxtail; details: scale 0 to 100
Text: as §1

[16] = test system: velvetleaf (Abutilon theophrasti); experiment: Test A postemergence, velvetleaf; details: 0 to 100 scale (0 no effect, 100 complete control)
How it was run: as §2

[17] = test system: large crabgrass (Digitaria sanguinalis); experiment: Test B preemergence, large crabgrass; details: scale 0 to 100
Text: as §1

CC1(C)CC(S(=O)(=O)Cc2c(C(F)(F)F)nc3n(c2=O)CCCC3)=NO1 [Compound 8, 3-[[(4,5-dihydro-5,5-dimethyl-3-isoxazolyl)sulfonyl]methyl]-6,7,8,9-tetrahydro-2-(trifluoromethyl)-4H-pyrido[1,2-α]pyrimidin-4-one]
0: Plant response rating, Soybean (soybean (Glycine max); 16 g ai/ha) | Plant response rating, Soybean (soybean (Glycine max); 31 g ai/ha) | Plant response rating, Soybean (soybean (Glycine max); 62 g ai/ha) | Plant response rating, Soybean (soybean (Glycine max); 125 g ai/ha) | Plant response rating, Ducksalad ([5]; 62 g ai/ha) | Plant response rating, Bromegrass, Downy ([6]; 16 g ai/ha) | Plant response rating, Bromegrass, Downy ([6]; 31 g ai/ha) | Plant response rating, Oat, Wild (wild oat (Avena fatua); 16 g ai/ha) | Plant response rating, Oat, Wild (wild oat (Avena fatua); 31 g ai/ha) | Plant response rating, Morningglory ([11]; 16 g ai/ha) | Plant response rating, Morningglory ([11]; 31 g ai/ha) | Plant response rating, Ragweed ([13]; 16 g ai/ha) | Plant response rating, Ragweed ([13]; 31 g ai/ha)
65: Plant response rating, Surinam Grass ([2]; 16 g ai/ha)
100: Plant response rating, Surinam Grass ([2]; 62 g ai/ha) | Plant response rating, Surinam Grass ([2]; 125 g ai/ha) | Plant response rating, Crabgrass, Large ([4]; 500 g ai/ha) | Plant response rating, Johnsongrass ([8]; 62 g ai/ha) | Plant response rating, Johnsongrass ([8]; 125 g ai/ha) | Plant response rating, Foxtail, Giant ([9]; 125 g ai/ha) | Plant response rating, Foxtail, Giant ([9]; 500 g ai/ha) | Plant response rating, Bermudagrass ([10]; 16 g ai/ha) | Plant response rating, Bermudagrass ([10]; 31 g ai/ha) | Plant response rating, Bermudagrass ([10]; 62 g ai/ha) | Plant response rating, Bermudagrass ([10]; 125 g ai/ha) | Plant response rating, Cupgrass, Woolly ([14]; 125 g ai/ha) | Plant response rating, Crabgrass, Large ([17]; 62 g ai/ha) | Plant response rating, Crabgrass, Large ([17]; 125 g ai/ha)
80: Plant response rating, Barnyardgrass ([7]; 125 g ai/ha) | Plant response rating, Morningglory ([11]; 125 g ai/ha)
95: Plant response rating, Surinam Grass ([2]; 31 g ai/ha) | Plant response rating, Cupgrass, Woolly ([14]; 31 g ai/ha) | Plant response rating, Cupgrass, Woolly ([14]; 62 g ai/ha) | Plant response rating, Crabgrass, Large ([17]; 16 g ai/ha) | Plant response rating, Crabgrass, Large ([17]; 31 g ai/ha)
35: Plant response rating, Oat, Wild (wild oat (Avena fatua); 62 g ai/ha)
90: Plant response rating, Barnyardgrass ([1]; 125 g ai/ha) | Plant response rating, Barnyardgrass ([1]; 500 g ai/ha) | Plant response rating, Crabgrass, Large ([4]; 125 g ai/ha) | Plant response rating, Barnyardgrass ([7]; 500 g ai/ha) | Plant response rating, Johnsongrass ([8]; 31 g ai/ha) | Plant response rating, Oat, Wild (wild oat (Avena fatua); 125 g ai/ha) | Plant response rating, Morningglory ([12]; 500 g ai/ha)
20: Plant response rating, Ducksalad ([5]; 250 g ai/ha) | Plant response rating, Bromegrass, Downy ([6]; 62 g ai/ha) | Plant response rating, Morningglory ([11]; 62 g ai/ha) | Plant response rating, Morningglory ([12]; 125 g ai/ha)
40: Plant response rating, Bromegrass, Downy ([6]; 125 g ai/ha)
70: Plant response rating, Foxtail, Green ([15]; 16 g ai/ha) | Plant response rating, Velvetleaf ([16]; 500 g ai/ha)
98: Plant response rating, Foxtail, Green ([15]; 62 g ai/ha) | Plant response rating, Foxtail, Green ([15]; 125 g ai/ha)
85: Plant response rating, Cupgrass, Woolly ([14]; 16 g ai/ha) | Plant response rating, Foxtail, Green ([15]; 31 g ai/ha)
50: Plant response rating, Velvetleaf ([16]; 125 g ai/ha)
75: Plant response rating, Johnsongrass ([8]; 16 g ai/ha)
60: Plant response rating, Pigweed ([3]; 500 g ai/ha) | Plant response rating, Ragweed ([13]; 125 g ai/ha)
10: Plant response rating, Pigweed ([3]; 125 g ai/ha)
25: Plant response rating, Ragweed ([13]; 62 g ai/ha)

CC1(C)CC(S(=O)(=O)Cc2c(C(F)(F)F)nc3n(c2=O)CCC3)=NO1 [Compound 11, 3-[[(4,5-dihydro-5,5-dimethyl-3-isoxazolyl)sulfonyl]methyl]-7,8-dihydro-2-(trifluoromethyl)pyrrolo[1,2-α]pyrimidin-4(6H)-one]
30: Plant response rating, Pigweed ([3]; 125 g ai/ha) | Plant response rating, Morningglory ([12]; 125 g ai/ha)
70: Plant response rating, Pigweed ([3]; 500 g ai/ha) | Plant response rating, Foxtail, Green ([15]; 31 g ai/ha)
55: Plant response rating, Ragweed ([13]; 125 g ai/ha)
100: Plant response rating, Foxtail, Giant ([9]; 500 g ai/ha) | Plant response rating, Bermudagrass ([10]; 31 g ai/ha) | Plant response rating, Bermudagrass ([10]; 62 g ai/ha) | Plant response rating, Bermudagrass ([10]; 125 g ai/ha) | Plant response rating, Cupgrass, Woolly ([14]; 31 g ai/ha) | Plant response rating, Cupgrass, Woolly ([14]; 62 g ai/ha) | Plant response rating, Cupgrass, Woolly ([14]; 125 g ai/ha) | Plant response rating, Foxtail, Green ([15]; 62 g ai/ha) | Plant response rating, Foxtail, Green ([15]; 125 g ai/ha) | Plant response rating, Crabgrass, Large ([17]; 62 g ai/ha) | Plant response rating, Crabgrass, Large ([17]; 125 g ai/ha)
50: Plant response rating, Ragweed ([13]; 62 g ai/ha) | Plant response rating, Velvetleaf ([16]; 125 g ai/ha)
65: Plant response rating, Bromegrass, Downy ([6]; 125 g ai/ha) | Plant response rating, Johnsongrass ([8]; 62 g ai/ha) | Plant response rating, Oat, Wild (wild oat (Avena fatua); 125 g ai/ha) | Plant response rating, Bermudagrass ([10]; 16 g ai/ha) | Plant response rating, Morningglory ([11]; 31 g ai/ha) | Plant response rating, Crabgrass, Large ([17]; 16 g ai/ha)
40: Plant response rating, Ragweed ([13]; 31 g ai/ha)
10: Plant response rating, Oat, Wild (wild oat (Avena fatua); 31 g ai/ha)
85: Plant response rating, Surinam Grass ([2]; 125 g ai/ha) | Plant response rating, Cupgrass, Woolly ([14]; 16 g ai/ha) | Plant response rating, Crabgrass, Large ([17]; 31 g ai/ha)
35: Plant response rating, Ducksalad ([5]; 250 g ai/ha)
80: Plant response rating, Crabgrass, Large ([4]; 125 g ai/ha) | Plant response rating, Barnyardgrass ([7]; 125 g ai/ha) | Plant response rating, Morningglory ([11]; 62 g ai/ha) | Plant response rating, Velvetleaf ([16]; 500 g ai/ha)
95: Plant response rating, Morningglory ([11]; 125 g ai/ha)
60: Plant response rating, Barnyardgrass ([1]; 125 g ai/ha) | Plant response rating, Johnsongrass ([8]; 31 g ai/ha)
90: Plant response rating, Barnyardgrass ([1]; 500 g ai/ha) | Plant response rating, Crabgrass, Large ([4]; 500 g ai/ha) | Plant response rating, Barnyardgrass ([7]; 500 g ai/ha) | Plant response rating, Johnsongrass ([8]; 125 g ai/ha) | Plant response rating, Foxtail, Giant ([9]; 125 g ai/ha) | Plant response rating, Morningglory ([12]; 500 g ai/ha)
0: Plant response rating, Soybean (soybean (Glycine max); 16 g ai/ha) | Plant response rating, Soybean (soybean (Glycine max); 31 g ai/ha) | Plant response rating, Soybean (soybean (Glycine max); 62 g ai/ha) | Plant response rating, Soybean (soybean (Glycine max); 125 g ai/ha) | Plant response rating, Surinam Grass ([2]; 16 g ai/ha) | Plant response rating, Surinam Grass ([2]; 31 g ai/ha) | Plant response rating, Surinam Grass ([2]; 62 g ai/ha) | Plant response rating, Ducksalad ([5]; 31 g ai/ha) | Plant response rating, Ducksalad ([5]; 62 g ai/ha) | Plant response rating, Ducksalad ([5]; 125 g ai/ha) | Plant response rating, Bromegrass, Downy ([6]; 16 g ai/ha) | Plant response rating, Bromegrass, Downy ([6]; 31 g ai/ha) | Plant response rating, Bromegrass, Downy ([6]; 62 g ai/ha) | Plant response rating, Johnsongrass ([8]; 16 g ai/ha) | Plant response rating, Oat, Wild (wild oat (Avena fatua); 16 g ai/ha) | Plant response rating, Morningglory ([11]; 16 g ai/ha) | Plant response rating, Ragweed ([13]; 16 g ai/ha)
20: Plant response rating, Oat, Wild (wild oat (Avena fatua); 62 g ai/ha) | Plant response rating, Foxtail, Green ([15]; 16 g ai/ha)
